PubChem BioAssay (NCI)
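Grown in 96-well plates, cells were treated for 48 hours with each compound at five concentrations. Insufficient inhibition: endpoint recorded as highest concentration tested. Abbreviation: GI50, concentration required for 50% inhibition of growth. TGI denotes the concentration required for complete inhibition of growth.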

Tests used:
Experiment in all cases: growth of human tumour cells (NCI), 48 h
[1] = tested on: HCT-15 colon
[2] = tested on: RPMI-8226 leukemia
[3] = tested on: SF-268 CNS
[4] = tested on: OVCAR-3 ovarian
[5] = tested on: SN12C renal
[6] = tested on: TK-10 renal
[7] = tested on: MCF7 breast
[8] = tested on: A498 renal
[9] = tested on: PC-3 prostate
[10] = tested on: UO-31 renal

COc1ccc(N=c2ssc3c(=S)ssc23)cc1
TGI [1]: 52.5 µM
TGI [2]: 38.3 µM
TGI [3]: > 100 µM
TGI [4]: 61.7 µM
TGI [5]: > 100 µM
TGI [6]: > 100 µM

COc1cccc(C=Nc2cc(C)ccn2)c1O.COc1cccc(C=Nc2cc(C)ccn2)c1O.[Cu]
GI50 [1]: 11.9 µM
TGI [1]: 36 µM
GI50 [2]: 17.6 µM
TGI [2]: > 100 µM
GI50 [7]: 19.7 µM
TGI [7]: 62.8 µM
GI50 [8]: 22.8 µM
TGI [8]: 43.4 µM
GI50 [9]: 17.8 µM
TGI [9]: 42.9 µM
GI50 [3]: 14.6 µM
TGI [3]: 42.2 µM
GI50 [4]: 14 µM
TGI [4]: 40.9 µM
GI50 [5]: 19 µM
TGI [5]: 50.4 µM
GI50 [6]: 19.8 µM
TGI [6]: 42 µM

COc1cc(C(=O)C/C(CCC(=O)Nc2ccccc2[N+](=O)[O-])=N\NC(=O)CC#N)ccc1O
TGI [1]: > 100 µM
TGI [2]: > 100 µM
TGI [8]: > 100 µM
TGI [10]: > 100 µM
TGI [3]: > 100 µM
TGI [4]: > 100 µM
TGI [5]: > 100 µM
TGI [6]: > 100 µM

CCCCCCc1cc(C(=O)Nc2cccc(C(F)(F)F)c2)nc(N)n1
TGI [1]: > 100 µM
TGI [2]: > 100 µM
TGI [8]: > 100 µM
TGI [10]: > 100 µM
TGI [3]: > 100 µM
TGI [4]: > 100 µM
TGI [5]: > 100 µM
TGI [6]: > 100 µM

COc1cc2c(cc1OCCCCOc1cc3c(cc1OC)C(=O)N1CCC[C@H]1CN3)N=C[C@@H]1CCCN1C2=O
GI50 [1]: 25.2 µM
TGI [1]: > 93.3 µM
GI50 [2]: 0.575 µM
TGI [2]: 4.84 µM
GI50 [7]: 0.346 µM
TGI [7]: 1.76 µM
GI50 [9]: 2.02 µM
TGI [9]: 97.9 µM
GI50 [10]: 2.89 µM
TGI [10]: > 23.9 µM
GI50 [3]: 0.344 µM
TGI [3]: 4.95 µM
GI50 [4]: 2.05 µM
TGI [4]: 6.38 µM
GI50 [5]: 2.29 µM
TGI [5]: 18.2 µM
GI50 [6]: 1.64 µM
TGI [6]: 8.38 µM

CCOC(=O)c1oc2ccc(OC)c3c2c1CCC3
TGI [1]: > 100 µM
TGI [2]: > 100 µM
TGI [8]: > 100 µM
TGI [10]: > 100 µM
TGI [3]: > 100 µM
TGI [4]: > 100 µM
TGI [5]: > 100 µM
TGI [6]: > 100 µM

CC(=O)OC1CCn2nnc(CO[Si](C)(C)C(C)(C)C)c21 (stereo not given)
TGI [1]: > 100 µM
TGI [2]: > 100 µM
TGI [10]: > 100 µM
TGI [4]: > 100 µM
TGI [5]: > 100 µM
TGI [6]: > 100 µM

Cc1ccc(-c2cc(-c3ccc(C)cc3)nc(NCCNc3ccnc4cc(Cl)ccc34)n2)cc1
GI50 [1]: 1.55 µM
TGI [1]: 3.16 µM
GI50 [2]: 1.85 µM
TGI [2]: 4.45 µM
GI50 [7]: 1.75 µM
TGI [7]: 3.64 µM
GI50 [8]: 1.89 µM
TGI [8]: 3.46 µM
GI50 [10]: 1.37 µM
TGI [10]: 2.85 µM
GI50 [3]: 1.72 µM
TGI [3]: 3.54 µM
GI50 [4]: 1.66 µM
TGI [4]: 3.15 µM
GI50 [5]: 1.63 µM
TGI [5]: 3.29 µM
GI50 [6]: 1.78 µM
TGI [6]: 3.47 µM

Brc1cccc(C2SCc3nc4ccccc4n32)c1 (stereo not given)
TGI [1]: 35.9 µM
TGI [2]: > 100 µM
TGI [10]: 25.7 µM
TGI [3]: > 100 µM
TGI [4]: 32.6 µM
TGI [5]: 33.2 µM
TGI [6]: 65.1 µM

COc1cc2nc(N3CCCC3)nc(NCC3CCCCC3)c2cc1OC
GI50 [1]: 0.505 µM
TGI [1]: 1.8 µM
GI50 [7]: 0.515 µM
TGI [7]: 2.03 µM
GI50 [8]: 1.11 µM
TGI [8]: 2.47 µM
GI50 [9]: 1.13 µM
TGI [9]: 2.83 µM
GI50 [10]: 1.1 µM
TGI [10]: 2.38 µM
GI50 [3]: 1.75 µM
TGI [3]: 3.45 µM
GI50 [4]: 1.55 µM
TGI [4]: 2.99 µM
GI50 [5]: 1.48 µM
TGI [5]: 2.91 µM
GI50 [6]: 1.73 µM
TGI [6]: 3.28 µM

C=C1COC(/C=C(\C)CC/C=C(\C)CCl)C1 (stereo not given)
TGI [1]: > 100 µM
TGI [2]: > 100 µM
TGI [8]: > 100 µM
TGI [10]: > 100 µM
TGI [3]: > 100 µM
TGI [4]: > 100 µM
TGI [5]: > 100 µM
TGI [6]: > 100 µM

N#CC(C(=O)CCC(=O)Nc1cccc(Cl)c1)c1ccccc1 (stereo not given)
TGI [1]: > 100 µM
TGI [2]: > 100 µM
TGI [8]: > 100 µM
TGI [10]: > 100 µM
TGI [3]: > 100 µM
TGI [4]: > 100 µM
TGI [5]: > 100 µM
TGI [6]: > 100 µM

CCOC(=O)C(=O)Nc1c(CC)cccc1C(C)C
TGI [1]: > 100 µM
TGI [2]: > 100 µM
TGI [8]: > 100 µM
TGI [10]: > 100 µM
TGI [3]: > 100 µM
TGI [4]: > 100 µM
TGI [5]: > 100 µM
TGI [6]: > 100 µM

C[Si](C)(C)OC1(C#N)C2C3CC4C2C(=O)C2C4C3C21 (stereo not given)
TGI [1]: > 100 µM
TGI [2]: > 100 µM
TGI [8]: > 100 µM
TGI [10]: > 100 µM
TGI [3]: > 100 µM
TGI [4]: > 100 µM
TGI [5]: > 100 µM
TGI [6]: > 100 µM

Nn1c(-c2ccccc2Cl)nc2ccccc2c1=O
TGI [1]: > 100 µM
TGI [2]: > 100 µM
TGI [8]: > 100 µM
TGI [10]: > 100 µM
TGI [3]: > 100 µM
TGI [4]: > 100 µM
TGI [5]: > 100 µM
TGI [6]: > 100 µM

O=C(/C(=C/c1ccc([N+](=O)[O-])cc1)c1ccccc1)c1ccccc1
GI50 [1]: 2.85 µM
TGI [1]: > 100 µM
GI50 [2]: 2.36 µM
TGI [2]: 6.49 µM
GI50 [7]: 3.2 µM
TGI [7]: > 100 µM
GI50 [8]: 1.98 µM
TGI [8]: 8.86 µM
GI50 [9]: 4.28 µM
TGI [9]: > 100 µM
GI50 [3]: 3.55 µM
TGI [3]: > 100 µM
GI50 [4]: 2.36 µM
TGI [4]: 5.64 µM
GI50 [6]: 3.43 µM
TGI [6]: > 100 µM

COC1CC(OS(=O)(=O)c2ccc(C)cc2)C(OC(=O)c2ccccc2)C(C)O1 (stereo not given)
GI50 [1]: > 100 µM
TGI [1]: > 100 µM
TGI [2]: > 100 µM
GI50 [8]: > 100 µM
TGI [8]: > 100 µM
GI50 [10]: > 100 µM
TGI [10]: > 100 µM
TGI [3]: > 100 µM
TGI [4]: > 10 µM
GI50 [5]: > 100 µM
TGI [5]: > 100 µM
GI50 [6]: > 100 µM
TGI [6]: > 100 µM

CCC1CN2CCc3cc(OC)c(OC)cc3C2CC1CC1c2cc(OC)c(OC)cc2CCN1C(=O)C1CCCN1C(=O)OCc1ccccc1 (stereo not given)
TGI [1]: 29.9 µM
TGI [2]: 36.5 µM
TGI [8]: 29.9 µM
TGI [10]: 26 µM
TGI [3]: 31.9 µM
TGI [4]: 30.7 µM
TGI [5]: 30.6 µM
TGI [6]: 38.6 µM

Cn1cnc2nc(Cl)nc(NC(C)(C)C(C)(C)O)c21
TGI [1]: > 100 µM
TGI [2]: > 100 µM
TGI [8]: > 100 µM
TGI [10]: > 100 µM
TGI [3]: > 100 µM
TGI [4]: > 100 µM
TGI [5]: > 100 µM
TGI [6]: > 100 µM
